This note sets out measurements from patent publication US8492568B2, “Chromane derivatives as TRPV3 modulators” (Glenmark Pharamceuticals S.A., priority 2008, dated 2013).

In this test the target is Human TRPV3 (Homo sapiens (Human), UniProt Q8NET8). In words: Screening for TRPV3 antagonist using the 45Calcium uptake assay. The test is classed as cell-based. The settings on record: 2-APB (500 μM) induced 45Ca uptake, human TRPV3 expressing CHO cells. An excerpt:
The illustrative examples of the present invention are screened for TRPV3 activity according to a modified procedure described in Tóth, A., Kedei, N., Wang, Y. and Blumberg, P. M. Life Sciences (2003), 73, 487-498. The screening of the compounds can be carried out by other methods and procedures known to a person skilled in the art. Such screening methods may be found in (a) Hu, H.-Z. et al. J. Biol. Chem. (2004), 279, 35741-35747; (b) Smith, G. D. et al. Nature (2002), 418, 186-190; (c) Peier, A. M. et al. Science (2002), 296, 2046-2049.
Screening for TRPV3 Antagonist Using the ^45Calcium Uptake Assay:
The inhibition of TRPV3 receptor activation was followed as inhibition of 2-aminoethoxydiphenylborate (2-APB) induced cellular uptake of radioactive calcium. Test compounds were dissolved in dimethyl sulfoxide (DMSO) to prepare 20 mM stock solution and then diluted using plain medium with DMEM/F-12 containing 1.8 mM CaCl2 to get desired concentration. Final concentration of DMSO in the reaction was 0.5% (v/v). Human TRPV3 expressing CHO cells were grown in DMEM/F-12 medium with 10% FBS, 1% penicillin-streptomycin solution, 400 μg/ml of G-418. […] Radioactivity in the lysate was measured in Packardt Top count after addition of liquid scintillant. […] IC50 value was calculated from concentration response curve by nonlinear regression analysis using GraphPad PRISM software.

Human TRPV3, sequence (Q8NET8 whole entry): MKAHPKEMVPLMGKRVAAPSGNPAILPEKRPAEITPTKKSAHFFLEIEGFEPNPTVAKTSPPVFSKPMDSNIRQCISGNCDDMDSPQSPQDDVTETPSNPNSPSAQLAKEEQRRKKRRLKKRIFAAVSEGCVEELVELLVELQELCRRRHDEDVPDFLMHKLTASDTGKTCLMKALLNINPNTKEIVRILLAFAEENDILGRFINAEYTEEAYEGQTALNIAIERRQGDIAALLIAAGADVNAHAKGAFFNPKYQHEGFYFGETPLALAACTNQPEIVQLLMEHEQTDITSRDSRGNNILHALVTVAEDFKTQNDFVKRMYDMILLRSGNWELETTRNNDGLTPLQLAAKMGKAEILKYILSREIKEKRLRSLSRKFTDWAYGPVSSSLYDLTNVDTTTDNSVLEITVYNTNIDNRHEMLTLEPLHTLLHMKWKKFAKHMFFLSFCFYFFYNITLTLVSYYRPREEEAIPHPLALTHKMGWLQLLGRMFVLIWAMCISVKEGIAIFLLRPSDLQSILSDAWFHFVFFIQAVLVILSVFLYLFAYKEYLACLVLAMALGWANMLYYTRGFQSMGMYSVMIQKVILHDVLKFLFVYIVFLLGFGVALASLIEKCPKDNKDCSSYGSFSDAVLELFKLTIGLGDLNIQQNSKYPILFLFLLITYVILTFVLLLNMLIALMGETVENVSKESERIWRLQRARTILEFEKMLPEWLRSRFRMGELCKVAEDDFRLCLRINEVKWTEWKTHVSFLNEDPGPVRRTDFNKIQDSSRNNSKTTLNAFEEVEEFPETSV

On to `COc1cccc(CNC(=O)CC2CC3(CCC3)Oc3ccc(Cl)cc32)c1OC1CCCC1` (stereo not shown) [Example 2, 2-(6-Chloro-3,4-dihydrospiro[chromene-2,1′-cyclobutan]-4-yl)-N-(2-cyclopentyloxy-3-methoxybenzyl)acetamide], for which the IC50 came to 725.3 n.M.
